Assay results from patent US12054479B1, “Multicyclic compounds” (SLAP Pharmaceuticals LLC, priority 2022, dated 2024).

Legend:
PARP1 [1] = molecular target: T1, PARP1 (Homo sapiens, UniProt P09874); test: cell-based assay (Table 1); proliferation assay (PARP inhibitors) in DLD-1 wt and DLD-1 BRCA2, CTG detection; design: endogenous in cells; host or cells: DLD-1 wt and DLD-1 BRCA2 (-/-); conditions: Table 1, results of the cell-based assay; cell line (DLD-1 wt or DLD-1 BRCA2) not given
Protocol: Proliferation Assay (PARP Inhibitors) in DLD-1 wt and DLD-1 BRCA2
DLD-1-wt and DLD-1 mutant cells are cultured in RPMI 1640+10% FBS+1% PS. The cells are harvested into culture media for 2-3 days. The cells are diluted into culture media (density 2˜3×10^6) and 40 uL of cell suspension (50 cells/well for DLD-1 wt and 50 cells/well for DLD-1 BRCA (−/−). The plates are covered and spun at rt at 1000 rpm, for 1 minute and then transferred. The plates are placed into 37° C. 5% CO2 incubator overnight. Test compounds are dissolved at 10 mM DMSO stock solution and then 40 uL of stock solution is transferred to a 384 PP-plate. A 10-point dilution is carried out by transferring 10 uL compound into 30 μL DMSO by using TECAN (EVO200) liquid handler. The plates are spun at rt at 1000 rpm for 1 minute and then shaken on a plate shaker for 2 minutes. Forty nL of diluted compound is transferred into the cell plate by using a liquid handler. After 7 days of incubation, a CTG detection assay is performed. The CTG detection assay is carried out by removing the plates from the incubators and then equilibrated at rt for 15 minutes. The CellTiter Glo reagents are thawed and equilibrated at rt. CellTiter-Glo reagent (30 μL) is added into each well, and the plates are placed at rt for 30 minutes followed by reading on EnVision. The inhibition activity is calculated using the formula: % Inhibition=100×(LumHC−LumSample)/(LumHC−LumLC).
In Table 1, ‘A’ indicates an IC50 of <0.1 μM, ‘B’ indicates an IC50 of ≥0.1 μM and <1.0 μM, and ‘C’ indicates an IC50 of ≥1.0 μM. As shown by the results in Table 1, compounds of Formula (I), including pharmaceutically acceptable salts thereof, are effective PARP1 inhibitors.

PARP1 [2] = molecular target: T1, PARP1; test: biochemical assay (Table 2); FP binding assay (PARP1, PARP2) with PARPi-FL; conditions: Table 2, results of the biochemical assay
Protocol: FP Binding Assay (PARP1, PARP2)
The PARP1 and PARP 2 protein and the PARPi-FL were purchased from BPS Bioscience. The assay buffer was 50 mM Tris pH 8.0, 0.001% Triton X-100, 10 mM MgCl2, 150 mM NaCl. The compounds were diluted into top point concentration in 384PP-plate and transferred serially into an Optiplate-384F plate. Compound (20 nL) or DMSO was added to assay plate and then 10 uL of 40 nM PARP1 or PARP2 (diluted using assay buffer) was added. The assay plate was centrifuged at 1000 rpm for 1 min and then incubated for 30 min at rt. 6 nM PARPi-FL (diluted using assay buffer) (10 uL) was added to the plate (final concentration of PARP1 and PARP2 was 20 nM, and PARPi-FL was 3 nM). After centrifuging at 1000 rpm for 1 min, the assay plate was incubated at rt 4 h. The plates were read using Envision with Excitation filter. The data analysis was done by calculating the inhibition rate using mP value using the following equation. Inhibition (%)=(1−mpC−mpL)/mpH−mpL×100%.
As shown by the results in Table 2, compounds of Formula (I), including pharmaceutically acceptable salts thereof, are effective PARP1 inhibitors.

T1 sequence (P09874 whole entry): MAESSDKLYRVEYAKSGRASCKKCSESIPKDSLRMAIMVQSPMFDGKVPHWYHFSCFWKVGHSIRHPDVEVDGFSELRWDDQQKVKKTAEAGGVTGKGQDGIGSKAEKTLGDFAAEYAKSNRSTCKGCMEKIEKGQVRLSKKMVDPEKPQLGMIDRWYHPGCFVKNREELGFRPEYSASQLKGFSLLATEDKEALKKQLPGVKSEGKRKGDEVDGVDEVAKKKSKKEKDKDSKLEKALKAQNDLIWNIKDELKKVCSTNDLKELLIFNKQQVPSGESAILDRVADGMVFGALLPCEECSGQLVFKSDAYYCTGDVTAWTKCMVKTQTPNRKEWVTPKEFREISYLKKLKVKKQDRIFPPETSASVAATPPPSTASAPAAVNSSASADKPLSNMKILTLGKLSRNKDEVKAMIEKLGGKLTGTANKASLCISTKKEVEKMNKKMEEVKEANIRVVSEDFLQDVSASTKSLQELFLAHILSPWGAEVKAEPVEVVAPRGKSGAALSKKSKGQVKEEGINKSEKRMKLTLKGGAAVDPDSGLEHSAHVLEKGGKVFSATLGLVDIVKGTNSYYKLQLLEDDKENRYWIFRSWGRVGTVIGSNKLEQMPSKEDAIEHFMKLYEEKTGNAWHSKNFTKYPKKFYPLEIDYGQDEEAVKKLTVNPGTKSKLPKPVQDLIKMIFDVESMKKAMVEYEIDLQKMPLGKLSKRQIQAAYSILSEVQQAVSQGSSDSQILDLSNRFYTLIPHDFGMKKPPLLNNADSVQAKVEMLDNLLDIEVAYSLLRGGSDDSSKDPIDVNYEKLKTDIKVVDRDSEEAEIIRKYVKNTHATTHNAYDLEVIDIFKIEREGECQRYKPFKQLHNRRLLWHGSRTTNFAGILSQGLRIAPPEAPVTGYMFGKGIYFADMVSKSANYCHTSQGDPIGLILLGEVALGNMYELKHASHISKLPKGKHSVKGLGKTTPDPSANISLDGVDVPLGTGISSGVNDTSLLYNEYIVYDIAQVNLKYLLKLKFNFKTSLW

| IC50 (PARP1 [1]) [nM] | SMILES | IC50 (PARP1 [2]) [nM] |
| --- | --- | --- |
| < 100 | CCC1Oc2ccc(CN3CCN(c4ccc(C(=O)NC)nc4F)CC3)c(F)c2NC1=O (single isomer, unassigned) [Compound 3aa] |  |
| < 100 | CCC1Oc2ccc(CN3CCN(c4ccc(C(=O)NC)nc4F)CC3)c(F)c2NC1=O (single isomer, unassigned) [Compound 3ab] |  |

| SMILES | IC50 (PARP1 [1]) [nM] | IC50 (PARP1 [2]) [nM] |
| --- | --- | --- |
| CNC(=O)c1ccc(N2CCN(Cc3ccc4c(c3F)NC(=O)C3(CC3)O4)CC2)c(C)n1 [Compound A8] | < 100 | < 5 |
